Publication PMC9143880, “Improving Antimicrobial Activity and Physico-Chemical Properties by Isosteric Replacement of 2-Aminothiazole with 2-Aminooxazole” (Pharmaceuticals, 2022)
In brackets after ≈: the same amount, converted by molar mass. Read-outs that look alike come from different tables or passages of the source.

Tests used:
[1] = tested on: M. avium DSM 44156 (ATCC 25291); assay: Antimycobacterial MIC, microdilution broth / resazurin; format: cell-based, Mycobacterium avium; conditions: Mycobacterium avium; resazurin after 96 h; read-out: MIC M. avium
[2] = tested on: Pseudomonas aeruginosa CCM 3955 (ATCC 27853); assay: Antibacterial microdilution broth (EUCAST); format: cell-based; conditions: Pseudomonas aeruginosa; 72h incubation; read-out: MIC PA
[3] = RP-UHPLC lipophilicity parameter log k’w; format: physicochemical; conditions: for log k’w: RP-UHPLC, acetonitrile/water, log k extrapolated to 0% acetonitrile; for logkw: experimental lipophilicity parameter
Source text: Lipophilicity and water solubility of the drug candidates are important parameters as they are often directly related to their ADME properties in the organism. Lipophilicity is usually expressed as the logarithm of the partition coefficient in n-octanol/water (log P). Due to its laborious determination, especially in the HTS screening, other experimental methods such as RP-HPLC log k’w or purely computational approaches such as Clog P were proposed and have been established as reasonable estimators of true lipophilicity. To investigate the changes in lipophilicity upon introduction of oxazole in the title compounds, we determined the log k’w of all derivatives and compared respective values among the pairs.
The log k of the synthesized compounds was measured using the same instrument (single measurement per concentration), software, and column as was used in the purity evaluation. Working solutions were diluted as described above for purity determination. The log k parameter was calculated after the UHPLC measurements using isocratic mode with mobile phase acetonitrile (B)/water (A) in a set of concentrations of 40, 45, 50% and 20, 30, 40% B for subtype I and subtype II, respectively.

[4] = tested on: Staphylococcus aureus subsp. aureus CCM 4223 (ATCC 29213); assay: Antibacterial microdilution broth (EUCAST); format: cell-based; conditions: Staphylococcus aureus; 24h incubation; read-out: MIC SA
[5] = tested on: Candida albicans CCM 8320 (ATCC 24433); assay: Antifungal microdilution broth (EUCAST); conditions: Candida albicans, 24 h, read-out: MIC CA
[6] = tested on: Mycobacterium tuberculosis H37Ra ITM-M006710 (ATCC 9431); assay: Antimycobacterial MIC, microdilution broth / Alamar Blue (resazurin); format: cell-based; conditions: for MIC: Mycobacterium tuberculosis
[7] = tested on: Acinetobacter baumannii DSM 30007 (ATCC 19606); assay: Antibacterial microdilution broth (EUCAST); format: cell-based; conditions: Acinetobacter baumannii; 24h incubation; read-out: MIC AB
[8] = tested on: HepG2 cells; assay: HepG2 cytotoxicity screening (CellTiter 96); format: cell-based, human; conditions: for IC50: Homo sapiens, HepG2, 24 h, 24 h incubation, CellTiter 96, * above highest tested concentration, ** limited by insolubility in medium; for SI: SI = IC50 (µM) HepG2 / MICH37Ra (µM)
[9] = tested on: Enterococcus faecalis CCM 4224 (ATCC 29212); assay: Antibacterial microdilution broth (EUCAST); format: cell-based; conditions: Enterococcus faecalis; 24h incubation; read-out: MIC EF
[10] = tested on: Candida krusei CCM 8271 (ATCC 6258); assay: Antifungal microdilution broth (EUCAST); conditions: Pichia kudriavzevii, 24 h, read-out: MIC CK
[11] = tested on: M. aurum DSM 43999 (ATCC 23366); assay: Antimycobacterial MIC, microdilution broth / resazurin; format: cell-based; conditions: Mycolicibacterium aurum; resazurin after 72 h; read-out: MIC M. aurum
[12] = tested on: Lichtheimia corymbifera CCM 8077; assay: Antifungal microdilution broth (EUCAST); conditions: Lichtheimia corymbifera, CCM8077, 24 h, read-out: MIC LC
[13] = tested on: M. smegmatis DSM 43465 (ATCC 607); assay: Antimycobacterial MIC, microdilution broth / resazurin; format: cell-based; conditions: Mycolicibacterium smegmatis; resazurin after 48 h; read-out: MIC M. smegmatis
[14] = tested on: Candida tropicalis CCM 8264 (ATCC 750); assay: Antifungal microdilution broth (EUCAST); conditions: Candida tropicalis, 24 h, read-out: MIC CT
[15] = tested on: Candida parapsilosis CCM 8260 (ATCC 22019); assay: Antifungal microdilution broth (EUCAST); conditions: Lodderomyces parapsilosis, 24 h, read-out: MIC CP
[16] = tested on: Staphylococcus aureus subsp. aureus (MRSA) CCM 4750 (ATCC 43300); assay: Antibacterial microdilution broth (EUCAST); format: cell-based; conditions: Staphylococcus aureus; 24h incubation; read-out: MIC MRSA
[17] = tested on: Aspergillus flavus CCM 8363; assay: Antifungal microdilution broth (EUCAST); conditions: Aspergillus flavus, CCM8363, 24 h, read-out: MIC AFla
[18] = tested on: Staphylococcus epidermidis CCM 4418 (ATCC 12228); assay: Antibacterial microdilution broth (EUCAST); format: cell-based; conditions: Staphylococcus epidermidis; 24h incubation; read-out: MIC SE
[19] = tested on: Aspergillus fumigatus ATCC 204305; assay: Antifungal microdilution broth (EUCAST); conditions: Aspergillus fumigatus, ATCC204305, 24 h, read-out: MIC AF
[20] = tested on: Escherichia coli CCM 3954 (ATCC 25922); assay: Antibacterial microdilution broth (EUCAST); format: cell-based; conditions: Escherichia coli; 24h incubation; read-out: MIC EC
[21] = tested on: M. kansasii DSM 44162 (ATCC 12478); assay: Antimycobacterial MIC, microdilution broth / resazurin; format: cell-based; conditions: Mycobacterium kansasii, read-out: MIC M. kansasii
[22] = tested on: Trichophyton interdigitale CCM 8377 (ATCC 9533); assay: Antifungal microdilution broth (EUCAST); conditions: Trichophyton interdigitale, 72 h, read-out: MIC TI
[23] = 120 h, Middlebrook 7H9, resazurin after 120 h, read-out: Mtb H37Ra MIC
[24] = Middlebrook 7H9, resazurin after 120 h

| Structure (SMILES) | MIC [1] | MIC [2] | log k’w [3] | logkw [3] | MIC [4] | MIC [5] | MIC [6, 23] | MIC [7] | melting point | IC50 [8] | MIC [9] | MIC [10] | MIC [11] | MIC [12] | MIC [13] | MIC [14] | MIC [15] | MIC [16] | MIC [17] | MIC [18] | also measured |
| --- | --- | --- | --- | --- | --- | --- | --- | --- | --- | --- | --- | --- | --- | --- | --- | --- | --- | --- | --- | --- | --- |
| Cc1cc(C(=O)Nc2nccs2)cc(Cl)n1 [Compound 7a] | ≥ 500 µg/mL | > 500 µM | 2.319 | 2.319 | > 500 µM | > 125 µM | ≥ 500 µg/mL | > 500 µM | 198.6 °C | > 250 µM | > 500 µM | > 125 µM | ≥ 500 µg/mL | > 125 µM | ≥ 500 µg/mL | > 125 µM | > 125 µM | > 500 µM | > 125 µM | > 500 µM | MIC [19]: > 125 µM; MIC [20]: > 500 µM; MIC ([21]; resazurin after 96 h): ≥ 500 µg/mL; MIC [22]: > 125 µM |
| O=C(Nc1nccs1)c1cnc2ccccc2n1 [Compound 10a] | ≥ 250 µg/mL | > 500 µM | 2.530 | 2.53 | > 500 µM | > 500 µM | ≥ 250 µg/mL | > 500 µM | 251.4 °C | > 50 µM | > 500 µM | > 500 µM | ≥ 250 µg/mL | > 500 µM | ≥ 250 µg/mL | > 500 µM | > 500 µM | > 500 µM | > 500 µM | > 500 µM | MIC [19]: > 500 µM; MIC [20]: > 500 µM; MIC ([21]; resazurin after 96 h): 7.81 µg/mL (≈ 30.5 µM); MIC [22]: > 500 µM |
| O=C(Nc1nc(-c2ccccc2)cs1)c1ccccn1 [Compound 11a] | ≥ 500 µg/mL | > 500 µM | 3.102 | 3.102 | > 500 µM | > 500 µM | 3.91 to 7.81 µg/mL | > 500 µM | 128 to 130 °C | > 100 µM | > 500 µM | > 500 µM | ≥ 500 µg/mL | > 500 µM | ≥ 500 µg/mL | > 500 µM | > 500 µM | > 500 µM | > 500 µM | > 500 µM | Mtb H37Ra MIC [6, 24]: 3.91 µg/mL; MIC ([6]; recalculated from µg/mL, read-out: MICH37Ra): 13.9 µM; SI [8]: >7.2; MIC [19]: > 500 µM; MIC [20]: > 500 µM; MIC ([21]; 96 h): 3.91 µg/mL (≈ 13.9 µM); MIC [22]: > 500 µM |
| O=C(Nc1nc(-c2ccccc2)co1)c1ccccn1 [Compound 11b] | 31.2 µg/mL (≈ 118 µM) | > 500 µM | 2.038 | 2.038 | 500 µM (≈ 133 µg/mL) | 500 µM (≈ 133 µg/mL) | 3.91 to 7.81 µg/mL | > 500 µM | 107 to 109 °C | 883 µM | > 500 µM | 500 µM (≈ 133 µg/mL) | 31.2 µg/mL (≈ 118 µM) | 125 µM (≈ 33.2 µg/mL) | 125 µg/mL (≈ 471 µM) | 500 µM (≈ 133 µg/mL) | 500 µM (≈ 133 µg/mL) | 500 µM (≈ 133 µg/mL) | 500 µM (≈ 133 µg/mL) | 125 µM (≈ 33.2 µg/mL) | Mtb H37Ra MIC [6, 24]: 3.91 µg/mL; MIC ([6]; read-out: MICH37Ra, recalculated from µg/mL): 14.7 µM; SI [8]: >67.8; MIC [19]: 500 µM (≈ 133 µg/mL); MIC [20]: > 500 µM; MIC ([21]; 96 h): 3.91 µg/mL (≈ 14.7 µM); MIC [22]: 62.5 µM (≈ 16.6 µg/mL) |
